How the values were obtained:
[1] = Inhibition of radical generation by SOD, superoxide generated by light irradiation of riboflavin (ESR); type: biochemical
Protocol: To the aqueous solution thus prepared, superoxide dismutase (SOD) (Sigma), which is an enzyme that specifically scavenges superoxide, was added at 10 U/mL to separately prepare an aqueous solution with added SOD.
The aqueous solutions prepared in the present Example (1) (aqueous solutions with or without SOD) were each introduced into the sample tube of the electron spin resonance device JES-RE1X (JEOL Ltd.). Using a xenon lamp, the sample tube was irradiated with visible light of 1500 lux for 30 seconds. Subsequently, a measurement was made by ESR under the following measurement conditions to obtain a spectrum. The spectrum of the SOD-free aqueous solution was obtained as Spectrum A, and the spectrum of the aqueous solution with added SOD was obtained as Spectrum B. The results thus obtained are shown in FIG. 10. […]
Following a similar operation to Example 1 (2), each of the aqueous solutions thus prepared was measured by ESR to obtain a spectrum. Based on the spectrum thus obtained, the amount of a radical generated was quantified.
Based on the quantification results of the amount of a radical generated in the present Examples (1) and (2), the radical generation-inhibitory rate by SOD was calculated by the following formula 5. […]

[2] = Inhibition of radical generation by SOD, superoxide generated by xanthine oxidase (ESR); type: biochemical; settings: SOD 0.5, 1, 1.5 U/mL; hypoxanthine 0.39 mmol/L, xanthine oxidase 0.2 U/mL; compared with riboflavin system
Protocol: Into a 50 mmol/L phosphate buffer with pH 7.4, hypoxanthine, CYPMPO (Radical Research Inc.), and diethylenetriaminopentaacetic acid (DETAPAC) were each added at 0.39 mmol/L, 10 mmol/L, and 0.1 mmol/L, respectively, to prepare an aqueous solution (SOD-free aqueous solution). Further, to this aqueous solution, SOD (Sigma) was added at a concentration of 0.5 U/mL, 1 U/mL, and 1.5 U/mL to separately prepare aqueous solutions with added SOD.
To each of the SOD-free aqueous solution and aqueous solutions with added SOD thus prepared, xanthine oxidase was added at 0.2 U/mL. Following a similar operation to Example 1 (2), each of the aqueous solutions was measured by ESR to obtain a spectrum. Subsequently, based on the spectrum thus obtained, the amount of a radical generated was quantified. Measurement by ESR was performed 60 seconds after the addition of xanthine oxidase.
Based on the quantification results of the amount of a radical generated in the present Examples (1) and (2), the radical generation-inhibitory rate by SOD was calculated by the following formula 5.
Radical generation-inhibitory rate by SOD=(S0−S)/[…] (Formula 5)

## superoxide dismutase [SOD]
[1]; SOD 0.5, 1, 1.5 U/mL, light irradiation of riboflavin, compared with xanthine oxidase system
  Radical generation-inhibitory rate by SOD: approximately the same values
[1]; SOD 10 U/mL, riboflavin 1 μmol/L, EDTA 5 mmol/L, CYPMPO 10 mmol/L
  Superoxide scavenging (radicals generated with added SOD): generated a small amount of EDTA radicals but not superoxide
[2]
  Radical generation-inhibitory rate by SOD: approximately the same values

Reference: patent publication US20120255853A1, “Method for Producing Superoxide, Method for Evaluating Superoxide Scavenging Ability, Device for Producing Superoxide, and Device for Evaluating Superoxide Scavenging Ability” (Sapporo Medical University, priority 2009, published 2012)
